Legend:
[1] = cited from earlier work
human patients [2] = assay: Intradermal application of glycolic acid in human patients; type: in vivo; conditions: 35 human patients, intradermal application of 5 ml at 0.01%
skin [3] = assay: Injection of GA alone, re-hydrating effect on the skin; type: in vivo, human
guinea pigs [4] = conditions: guinea pig, in vivo
Excerpt: (§1) In a preliminary test, 39 guinea pigs were used to define product concentration for intradermal injections. All were adult animals and sex was not considered. They were divided in 4 different cages, each containing 9, 10, 10 and 10 animals. […] Evaluations were taken after the 3rd and 7th day.

human patients [5] = conditions: in comparison to the retinoids (Personelli); cited from earlier work
skin [6] = conditions: documented; cited from earlier work
guinea pigs [7] = assay: Preliminary test of glycolic acid concentration for intradermal injections in guinea pigs
Excerpt: as §1

| animals showing a minimal oedema and hyperaemia (guinea pigs [4]) [%] | animals with no edema and no hyperaemia (guinea pigs [4]) [%] | ideal dose (guinea pigs [4]) [%] | tissue finding (guinea pigs [7]; 0.1 ml at 0.2%, 3rd day) | tissue finding (guinea pigs [7]; 0.1 ml at 0.2%, 7th day) | tissue finding (guinea pigs [7]; 0.1 ml at 0.3%, 3rd day) | tissue finding (guinea pigs [7]; 0.1 ml at 0.3%, 7th day) | SMILES | solubility in water [1] | adverse reactions in tissues (hyperemia, edema or discreet ecchymosis) (human patients [2]) | re-hydrating effect of the skin (skin [3]) | local toxicity (human patients [5]) | systemic effect or comedomic action (human patients [5]) | increase in skin moisture (skin [6]) [%] | tissue finding (guinea pigs [7]; 0.1 ml at 0.1%, 3rd day) | tissue finding (guinea pigs [7]; 0.1 ml at 0.1%, 7th day) |
| --- | --- | --- | --- | --- | --- | --- | --- | --- | --- | --- | --- | --- | --- | --- | --- |
|  |  |  |  |  |  |  | OC[C@@H](O)[C@@H](O)[C@H](O)[C@H](O)CO [D-mannitol] | readily soluble |  |  |  |  |  |  |  |
| 40 | 60 | 0.01 | moderate hyperaemia and edema | normal tissue (regular) | evident hyperaemia edema | epydermolyse and edema | O=C(O)CO [glycolic acid] |  | no adverse reactions | remarkable re-hydrating effect | low local toxicity | no systemic effect or comedomic action | 300 | tissue necrosis | ulcer |
